Here are results for four compounds from patent US5336673A, “3-substituted cephem compounds” (priority 1990, dated 1994).

For one data set, the system named is enterobacteria. Particulars: against the enterobacteria; cited from earlier work.
The test system of data set [1] is Staphylococcus aureus SG 511. Briefly: Antibacterial activity, MIC by Agar dilution method, standard test strain 4. The format is cell-based. Particulars: SG511, 10^7 CFU/ml, 37° C., 18 hours. The protocol: (§1) The antibacterial activity was determined by an Agar dilution method as described below.
(§2) That is, the two-fold serial dilutions of the antibacterial compounds (1000 μg compound/ml) were prepared and dispersed in Muller Hinton Agar in a petri dish to a concentration of 100~0.002 μg/ml. The culture broths of standard test strains were inoculated on the medium to a concentration 10^7 CFU/ml, and incubated at 37° C. for 18 hours. The concentration of compounds(I) at which the strains were not grown was regarded as minimum inhibition concentration (MIC).
(§3) The results of antibacterial activity test of the representative examples of the compound (I) against 20 standard test strains shown in terms of MIC were indicated in Table 1.
4. Staphylococcus aureus SG 511
Background: In agar dilution, organisms are placed on agar that contains the substance at set levels.

For data set [2], the system named is Staphylococcus aureus 503. Briefly: Antibacterial activity, MIC by Agar dilution method, standard test strain 6. It counts as cell-based. Particulars: 10^7 CFU/ml, 37° C., 18 hours. The protocol: as §1, §2, §3
6. Staphylococcus aureus 503

For data set [3], the system named is Streptococcus pyogenes A 308. Briefly: Antibacterial activity, MIC by Agar dilution method, standard test strain 1. The format is cell-based. To be noted: A308, 10^7 CFU/ml, 37° C., 18 hours. The method, then: as §1, §2, §3
1. Streptococcus pyogenes A 308

The next data set relates to Enterobacter cloacae P99. Briefly: Antibacterial activity, MIC by Agar dilution method, standard test strain 19. To be noted: P99, 18 h. It counts as cell-based. The protocol: as §1, §2, §3
19. Enterobacter cloacae P99

The next data set in a line: Acute toxcity test. Particulars: in vivo, male ICR-mouse, after 1 week. The method, then:
Further, in order to illustrate the usefulness of the compounds (I) as a drug, compounds of Examples 12, 18 and 36 were tested for acute toxcity by using 4 weeks-old male ICR-mouse as a test animal.
the compounds were dissolved in physiological saline and phosphate buffered solution (pH 7.0), or if they were […], suspended in carboxymethylcellulose or gum Arabic and then mixed with phosphate buffered solution.
The solution or mixture was administered to the tested animals intravenously or subcutaneously and, after 1 week, the number of surviving animals was calculated.

The next data set concerns Escherichia coli 1507E. Briefly: Antibacterial activity, MIC by Agar dilution method, standard test strain 11. It counts as cell-based. To be noted: Escherichia coli, 1507E, 18 h. The protocol:
as §1, §2, §3

The subject of data set [4] is Pseudomonas aeruginosa 1771M. Nature of the data set: Antibacterial activity, MIC by Agar dilution method, standard test strain 15. The format is cell-based. To be noted: 18 h. The method, then:
as §1, §2, §3
15. Pseudomonas aeruginosa 1771M

In data set [5] the test system is Klebsiella aerogenes 1522E. Briefly: Antibacterial activity, MIC by Agar dilution method, standard test strain 18. It counts as cell-based. Particulars: Klebsiella aerogenes 1522E; 10^7 CFU/ml, 37° C., 18 hours; read-out: MIC. The protocol:
as §1, §2, §3
18. Klebsiella aerogenes 1522E

For data set [6], the system named is Pseudomonas aeruginosa 1592E. Briefly: Antibacterial activity, MIC by Agar dilution method, standard test strain 13. It counts as cell-based. To be noted: 10^7 CFU/ml, 37° C., 18 hours. The method, then:
as §1, §2, §3
13. Pseudomonas aeruginosa 1592E

For data set [7], the system named is Pseudomonas aeruginosa 9027. Nature of the data set: Antibacterial activity, MIC by Agar dilution method, standard test strain 12. The format is cell-based. Particulars: 10^7 CFU/ml, 37° C., 18 hours. The protocol: as §1, §2, §3
12. Pseudomonas aeruginosa 9027

The next data set concerns Klebsiella oxytoca 1082E. Briefly: Antibacterial activity, MIC by Agar dilution method, standard test strain 17. The format is cell-based. To be noted: 10^7 CFU/ml, 37° C., 18 hours. The protocol: as §1, §2, §3
For data set [8], the system named is Streptococcus faecium MD 86. Briefly: Antibacterial activity, MIC by Agar dilution method, standard test strain 3. The format is cell-based. To be noted: Enterococcus faecium, MD86, 10^7 CFU/ml, 37° C., 18 hours. The method, then:
as §1, §2, §3
3. Streptococcus faecium MD 86

In data set [9] the test system is Pseudomonas aeruginosa 1771. Briefly: Antibacterial activity, MIC by Agar dilution method, standard test strain 14. It counts as cell-based. Particulars: 10^7 CFU/ml, 37° C., 18 hours. The method, then: as §1, §2, §3
14. Pseudomonas aeruginosa 1771

Data set [10] has as its system Enterobacter cloacae 1321E. Briefly: Antibacterial activity, MIC by Agar dilution method, standard test strain 20. The format is cell-based. Particulars: Enterobacter cloacae 1321E; 10^7 CFU/ml, 37° C., 18 hours; read-out: MIC. The protocol: as §1, §2, §3
20. Enterobacter cloacae 1321E

The subject of data set [11] is Gram-positive strains as well as Gram-negative strains including Pseudomonas. Briefly: Antibacterial activity (summary in words). The format is cell-based. Particulars: Gram-positive and Gram-negative strains. The method, then: as §1, §2
Data set [12] relates to Streptococcus pyogenes A 77. Briefly: Antibacterial activity, MIC by Agar dilution method, standard test strain 2. The format is cell-based. To be noted: A77, 10^7 CFU/ml, 37° C., 18 hours. The method, then: as §1, §2, §3
2. Streptococcus pyogenes A 77

A further data set has as its system Escherichia coli O 55. Nature of the data set: Antibacterial activity, MIC by Agar dilution method, standard test strain 7. It counts as cell-based. Particulars: O55; Escherichia coli O 55; 10^7 CFU/ml, 37° C., 18 hours; read-out: MIC. The method, then: as §1, §2, §3
The test system of a further data set is Escherichia coli DC 2. Nature of the data set: Antibacterial activity, MIC by Agar dilution method, standard test strain 9. It counts as cell-based. Particulars: DC2; Escherichia coli DC 2; 10^7 CFU/ml, 37° C., 18 hours; read-out: MIC. The protocol:
as §1, §2, §3

In the next data set the test system is Salmonella typhimurium. Briefly: Antibacterial activity, MIC by Agar dilution method, standard test strain 16. It counts as cell-based. Particulars: Salmonella enterica, 10^7 CFU/ml, 37° C., 18 hours. The method, then: as §1, §2, §3
16. Salmonella typhimurium

Another data set deals with Escherichia coli DC O. Nature of the data set: Antibacterial activity, MIC by Agar dilution method, standard test strain 8. The format is cell-based. To be noted: Escherichia coli DC O; 10^7 CFU/ml, 37° C., 18 hours; read-out: MIC. The method, then: as §1, §2, §3
The test system of a further data set is Staphyloccus aureus 285. Nature of the data set: Antibacterial activity, MIC by Agar dilution method, standard test strain 5. It counts as cell-based. Particulars: 10^7 CFU/ml, 37° C., 18 hours. The protocol:
as §1, §2, §3
5. Staphyloccus aureus 285

The next data set has as its system Escherichia coli TEM. Briefly: Antibacterial activity, MIC by Agar dilution method, standard test strain 10. Particulars: Escherichia coli TEM; 10^7 CFU/ml, 37° C., 18 hours; read-out: MIC. It counts as cell-based. The protocol: as §1, §2, §3
In data set [13] the target is T1, β-lactamase from Citrobacter freundii (Citrobacter freundii, UniProt P05193).
T1 construct: directly isolated from Enterobacter cloacae P99, E. coli TEM and Citrobacter freundii; endogenous in cells
Briefly: Stability against β-lactamase, relative hydrolysis. Particulars: Citrobacter freundii enzyme; 100 μM; relative(percentage), Cephaloridine taken as 100; OD at 260 nm. It counts as biochemical. The protocol: (§4) In order to establish the usefulness in clinical applications of the compounds provided by the invention, the compound of Example 18 was tested for stability against the β-lactamase and for antibacterial activity on systemic infection model.
(§5) First, the stability against the β-lactamase was tested by determining the relative(percentage) hydrolysis of the compound of Example 18, relative to that of Cephaloridine, taking the absolute rate of Cephaloridine as 100.
(§6) The β-lactamases employed in the test were directly isolated from Enterobacter cloacae P99, E. coli TEM and Citrobacter freundii, and the antibiotics for comparison were Cephaloridine, Cephradine, Cefoperazone and Cefotaxime.
(§7) Cephaloridine, other known antibiotics and the compound of Example 18 were reacted with each of the enzymes isolated from the strains and the OD were determined at 260 nm, λmax of Cephaloridine. The relative hydrolysis of various compounds were calculated relative to the OD of Cephaloridine.

Data set [14] concerns the target T2, β-lactamase from E. coli TEM (Escherichia coli, UniProt P62593).
T2 construct: directly isolated from Enterobacter cloacae P99, E. coli TEM and Citrobacter freundii; endogenous in cells; host or cells: E. coli TEM (plasmid-carried enzyme of the strain)
Briefly: Stability against β-lactamase, relative hydrolysis. The format is biochemical. Particulars: E. coli TEM enzyme; 100 μM; relative(percentage), Cephaloridine taken as 100; OD at 260 nm. The protocol: as §4, §5, §6, §7

For data set [15], the target named is T3, β-lactamase from Enterobacter cloacae P99 (Enterobacter cloacae, UniProt P05364).
T3 construct: directly isolated from Enterobacter cloacae P99, E. coli TEM and Citrobacter freundii; endogenous in cells; host or cells: Enterobacter cloacae P99
Nature of the data set: Stability against β-lactamase, relative hydrolysis. It counts as biochemical. To be noted: Enterobacter cloacae P99 enzyme; 100 μM; relative(percentage), Cephaloridine taken as 100; OD at 260 nm. The method, then:
as §6
The relative hydrolysis of various compounds were calculated relative to the OD of Cephaloridine.

In brackets after ≈: the same amount, converted by molar mass. Bounds are passed on as bounds.

T1 sequence (P05193 21-381): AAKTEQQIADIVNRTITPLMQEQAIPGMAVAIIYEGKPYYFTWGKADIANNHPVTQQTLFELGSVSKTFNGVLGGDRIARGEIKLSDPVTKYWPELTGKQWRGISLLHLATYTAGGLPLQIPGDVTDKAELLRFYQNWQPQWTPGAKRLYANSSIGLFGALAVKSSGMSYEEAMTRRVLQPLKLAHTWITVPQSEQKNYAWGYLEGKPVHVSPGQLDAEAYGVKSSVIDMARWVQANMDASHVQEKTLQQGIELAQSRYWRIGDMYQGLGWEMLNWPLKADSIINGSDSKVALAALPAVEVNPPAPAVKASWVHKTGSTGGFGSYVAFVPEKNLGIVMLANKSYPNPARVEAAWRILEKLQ
T2 sequence (P62593 24-286 limits assumed): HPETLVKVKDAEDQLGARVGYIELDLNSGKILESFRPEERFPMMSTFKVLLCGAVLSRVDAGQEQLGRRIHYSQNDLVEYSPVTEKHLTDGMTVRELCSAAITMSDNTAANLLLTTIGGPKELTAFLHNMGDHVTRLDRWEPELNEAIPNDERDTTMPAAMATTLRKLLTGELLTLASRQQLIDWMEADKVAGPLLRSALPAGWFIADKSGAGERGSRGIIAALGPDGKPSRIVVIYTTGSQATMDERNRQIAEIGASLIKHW
T3 sequence (P05364 21-381): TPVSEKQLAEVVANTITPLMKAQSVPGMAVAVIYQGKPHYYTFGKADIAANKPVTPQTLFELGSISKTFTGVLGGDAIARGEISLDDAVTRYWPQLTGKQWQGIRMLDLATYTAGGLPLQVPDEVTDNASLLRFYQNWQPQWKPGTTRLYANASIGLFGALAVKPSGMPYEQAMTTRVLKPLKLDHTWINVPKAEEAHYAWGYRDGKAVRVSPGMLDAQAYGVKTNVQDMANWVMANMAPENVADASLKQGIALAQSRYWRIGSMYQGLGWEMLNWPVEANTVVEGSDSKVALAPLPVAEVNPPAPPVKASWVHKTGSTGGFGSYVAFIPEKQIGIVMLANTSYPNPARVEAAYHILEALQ

Regarding `CO/N=C(\C(=O)N[C@@H]1C(=O)N2C(C(=O)O)=C(CSc3nc(=O)c(=O)[nH]n3C)CS[C@H]12)c1csc(N)n1` [Ceftriaxone], in the data set with enterobacteria, the “antibacterial activity (in words)” value was “strong antibacterial activities”.

Turning to `CC(C)(O/N=C(\C(=O)N[C@@H]1C(=O)N2C(C(=O)[O-])=C(C[n+]3cn(N)cn3)CS[C@H]12)c1csc(N)n1)C(=O)O` [Example 36, (6R,7R)-7-[(Z)-2-(2-aminothiazol-4-yl)-2-(2-carboxyprop-2-oxyimino)acetamido]-3-[(4-amino-1,2,4-triazol-2-ium)methyl]-ceph-3-em-4-carboxylate], the MIC in [1] was determined as 1.56 µg/mL (≈ 2.83 µM); in data set [2], 1.56 µg/mL (≈ 2.83 µM); in [3], 0.098 µg/mL (≈ 0.178 µM); against Enterobacter cloacae P99, 100 µg/mL (≈ 181 µM); in the data set on Escherichia coli 1507E it was 1.56 µg/mL (≈ 2.83 µM); in data set [4], 0.098 µg/mL (≈ 0.178 µM). Besides, the minimum inhibitory concentration (MIC) in [5] was 0.781 µg/mL (≈ 1.42 µM); in data set [6] it was 6.25 µg/mL (≈ 11.3 µM); in data set [7], 6.25 µg/mL (≈ 11.3 µM); in the data set on Klebsiella oxytoca 1082E, 100 µg/mL (≈ 181 µM); in data set [8], 25 µg/mL (≈ 45.3 µM); in data set [9], 1.56 µg/mL (≈ 2.83 µM). In addition, the minimum inhibitory concentration (MIC) came to 0.391 µg/mL (≈ 0.709 µM) in [10]; 0.049 µg/mL (≈ 0.0888 µM) in data set [12]; 0.195 µg/mL (≈ 0.354 µM) with Escherichia coli O 55; 0.195 µg/mL (≈ 0.354 µM) with Escherichia coli DC 2; 6.25 µg/mL (≈ 11.3 µM) against Salmonella typhimurium; 0.781 µg/mL (≈ 1.42 µM) in the data set with Escherichia coli DC O. Besides, the MIC in the data set on Staphyloccus aureus 285 and with Escherichia coli TEM was 3.12 µg/mL (≈ 5.67 µM) each time. In addition, the LD50 at 168 h is > 6000 mg/kg in the data set “Acute toxcity test” (sc, Subcutaneous administration) and > 4000 mg/kg in the data set “Acute toxcity test” (Intravenous administration). Also, the “antibacterial activity (in words)” value in data set [11] is on record as “excellent antibacterial activity”.

Regarding `O=C(Cc1cccs1)N[C@@H]1C(=O)N2C(C(=O)[O-])=C(C[n+]3ccccc3)CS[C@H]12` [Cephaloridine], the “Relative hydrolysis by β-lactamase” value in data set [13], in data set [14] and in data set [15] was 100 in each case.

Take `CO/N=C(\C(=O)N[C@@H]1C(=O)N2C(C(=O)O)=C(CSc3nnnn3C)CS[C@H]12)c1csc(N)n1` [Cefmenoxime]: the “antibacterial activity (in words)” value with enterobacteria is recorded as “strong antibacterial activities”.

In general, MIC refers to the least concentration at which growth counts as inhibited. What is called LD50 is the dose expected to kill half of the subjects tested.
